What was measured:
[1] = Solubility of crushed and screened TTM particles in water; format: physicochemical; conditions: particles after 70-mesh screen
From the text: The present inventors undertook a study to determine the size of the TTM particles after a crushing and screening process using a 70-mesh screen that would allow a maximum particle size of 210 micrometers. The size range was as follows: 10% under 13.3 μm; 50% under 44.5 μm; 90% under 122 μm.
This is not unsurprising, as saturation will occur in fluids as a known principle and does illustrate enough fluid is required to be available to dissolve the administered TTM to create optimal bioavailability. Further, larger particles with […] surface area would be expected to remain after the smaller particles dissolve.

[2] = Stability of TTM filled in enteric capsules exposed to stomach acid / simulated stomach acid; format: physicochemical; conditions: additional enteric coatings applied; after one hour
Description: The present inventors have determined that while the designed disintegration properties of an enteric capsule remain stable for 2 hours and the designed enteric capsule may have a diffusion rate below 7.5% in the first two hours, the inventors research confirmed in fact stomach acid or moisture from the stomach does enter the capsule, and the enteric interior capsule walls become wet, thereby subjecting the TTM to the acid or moisture, causing rapid degradation of the enteric capsule from the chemical reaction with the moistened TTM.
The present inventors have determined that the TTM releases H2S gas when a small amount of stomach acid or moisture enters the enteric capsule, not only causing degradation of the TTM, but also the moisture seeping through the capsule causes TTM to release H2S as part of the degradation process, which then comes in contact with the inside of the enteric capsule. This dissolves the enteric capsule from inside the capsule and leads to a catastrophic capsule failure within 15 to 30 minutes.
This is not a preferred solution as the TTM is getting wet inside the capsule and degrading, creating the problem of not knowing how much TTM will be left to be absorbed by the patient after the tablet leaves the stomach. Such a reaction reduces the amount of drug being available to the patient, thereby reducing the drugs intended effect due to less TTM available. […]

For `[SH-].[SH-].[S]=[Mo]=[S]` [TTM, tetrathiomolybdate], the solubility in water ([1]; 60 mg in 300 ml water) was “dissolved fully over time”, the solubility in water ([1]; 160 mg in 300 ml of water) was “did not fully dissolve” and the “TTM leakage from enteric capsule with additional enteric coatings” value [2] was “still leaking out”.
